Results: patent US12624309B2, “Enol ether properfume” (Firmenich SA, priority 2020, dated 2026)

Experiment: Acid-catalyzed hydrolysis of enol ethers in THF/1 M HCl, percent remaining by GC-FID
Type: physicochemical
Conditions: for percent remaining, 24 h / percent remaining, 48 h / percent remaining, 72 h / percent remaining, 168 h / percent remaining, 336 h / percent remaining, 504 h / percent remaining, 672 h / percent remaining, initial / rate of hydrolysis / hydrolytic stability compared to corresponding enol ethers prepared from alkyl alcohols: THF/1M HCl (80:20 v/v); for percent remaining, 24 h / percent remaining, 48 h / percent remaining, 72 h / percent remaining, 168 h / percent remaining, 336 h / percent remaining, 504 h / percent remaining, 672 h / percent remaining, initial: room temperature; for percent remaining, initial: time zero; for enol ether remained after 504 h (21 days): Table 1, THF/1M HCl; for rate of hydrolysis / hydrolytic stability compared to corresponding enol ethers prepared from alkyl alcohols: in words
Experimental: Each enol ether was dissolved in a 4:1 THF/1 M HCl mixture and the percent remaining over time measured relative to an internal standard.
After mixing, 2 mL of this solution were removed with a volumetric pipet and used to obtain the time zero measurement. 2 mL of 1 M HCl were mixed with the remaining 8 mL of the THF solution. This mixture was divided into 5 mL vials (1 mL per vial). The vials were gently topped with nitrogen and fitted with screw caps around which parafilm was wrapped. The vials were stored at room temperature until analyzed. For analyses, 2 mL of ethyl acetate was added to a vial and mixed. After phase separation, the top phase was collected and washed with saturated sodium carbonate (1 mL). Samples of the organic phase were analyzed by GC-FID. For the time zero sample, 0.5 mL of deionized water was added to the 2 mL taken from the original THF solution. 1 mL of this solution was added to a 5 mL vial and diluted with 2 mL of ethyl acetate and mixed. The top phase was collected and washed with saturated sodium carbonate (1 mL). The top phase then was analyzed by GC-FID. The percent of enol ether remaining was determined by dividing the peak area ratio of the enol ether to internal standard by the ratio measured at time zero.

percent remaining, 24 h | percent remaining, 48 h | percent remaining, 72 h | percent remaining, 168 h | percent remaining, 336 h | percent remaining, 504 h | percent remaining, 672 h | percent remaining, initial | enol ether remained after 504 h (21 days) | rate of hydrolysis / hydrolytic stability compared to corresponding enol ethers prepared from alkyl alcohols | SMILES
89.1% | 80.2% | 72.4% | 52.5% | 29.1% | 14.6% | 10.1% | 100% | 14.6% | – | CC/C=C\CCOC=Cc1ccc(OC)cc1 [Compound 51, 1-(2-(((Z)-hex-3-en-1-yl)oxy)vinyl)-4-methoxybenzene, reference compound]
99.3% | 99.5% | 98.9% | 96.5% | 93.3% | 90.4% | 88.6% | 100% | – | improved hydrolytic stability | CCCCCC(CC)OC(=O)C(C)OC=C(C)c1ccccc1 (racemic) [Compound 44, (±)-octan-3-yl 2-((2-phenylprop-1-en-1-yl)oxy)propanoate]
97.3% | 95.0% | 91.8% | 78.5% | 59.0% | 53.0% | 41.4% | 100% | – | – | CC(OC=Cc1ccccc1)C(=O)OCCc1ccccc1 (racemic) [Compound 40, (±)-phenethyl 2-(styryloxy)propanoate]
99.3% | 98.5% | 98.5% | 96.2% | 92.1% | 89.7% | 85.8% | 100% | – | Slower rates of hydrolysis | COC(=O)C(C)(C)OC=C(C)c1ccc(C)cc1 [Compound 28, (±)-methyl 2-methyl-2-((2-(p-tolyl)prop-1-en-1-yl)oxy)propanoatemethyl]
97.8% | 95.5% | 93.9% | 85.0% | 70.4% | 57.3% | 42.5% | 100% | – | – | CC(=COCCc1ccccc1)c1ccc(C)cc1 [1-methyl-4-(1-phenethoxyprop-1-en-2-yl)benzene, reference compound]
96.6% | 94.4% | 91.2% | 81.6% | 65.0% | 51.1% | 40.0% | 100% | – | – | CC/C=C\CCOC(=O)C(C)OC=C(C)c1ccc(OC)cc1 (racemic) [Compound 47, (±)-(Z)-hex-3-en-1-yl 2-((2-(4-methoxyphenyl)prop-1-en-1-yl)oxy)propanoate]
– | – | 100% | 98.1% | 93.6% | 90.0% | 89.6% | 100% | – | improved hydrolytic stability | COC(=O)C(C)(C)OC=C(C)c1ccccc1 [Compound 25, methyl 2-methyl-2-((2 phenylprop-1-en-1-yl)oxy)propanoate]
94.6% | 90.0% | 83.7% | 66.4% | 45.2% | 35.9% | 25.0% | 100% | 39.5% | – | C(=Cc1ccccc1)OCCc1ccccc1 [(2-phenethoxyvinyl)benzene, reference compound]
95.1% | 93.9% | 89.8% | 78.1% | 60.1% | 46.8% | 35.2% | 100% | 46.8% | – | CC/C=C\CCOC(=O)C(C)OC=Cc1ccc(OC)cc1 (racemic) [Compound 42, (±)-(Z)-hex-3-en-1-yl 2-((4-methoxystyryl)oxy)propanoate]
98.4% | 96.5% | 93.8% | 86.1% | 72.7% | 59.0% | 43.7% | 100% | – | – | CC(=COCCc1ccccc1)c1ccccc1 [(1-phenethoxyprop-1-en-2-yl)benzene, reference compound]
92.9% | 85.7% | 80.5% | 60.3% | 41.7% | 28.1% | 17.9% | 100% | – | – | CC(=COC(C)(C)CCCC(C)C)c1ccccc1 [(1-(2,6-dimethylheptan-2-yloxy)prop-1-en-2-yl)benzene, reference compound]
96.8% | 94.8% | 93.8% | 87.6% | 76.9% | 67.6% | 56.2% | 100% | – | – | CCC(C)OC(=O)C(C)OC=C(C)c1ccc(OC)cc1 (racemic) [Compound 49, (±)-sec-butyl 2-((2-(4-methoxyphenyl)prop-1-en-1-yl)oxy)propanoate]
96.2% | 92.4% | 89.3% | 76.6% | 57.3% | 44.5% | 33.6% | 100% | – | – | CCCCCC(CC)OC=C(C)c1ccccc1 (centres unmarked) [(1-(octan-3-yloxy)prop-1-en-2-yl)benzene, reference compound]
84.9% | 72.0% | 61.7% | 33.6% | 10% | 4.5% | 0% | 100% | 4.5% | – | CCCCCC(CC)OC=Cc1ccccc1 (centres unmarked) [(2-(octan-3-yloxy)vinyl)benzene, reference compound]
98.0% | 97.0% | 95.8% | 90.9% | 82.4% | 74.5% | 66.6% | 100% | – | Slower rates of hydrolysis | CCC(C)OC(=O)C(C)OC=C(C)c1ccc(C)cc1 (racemic) [Compound 46, (±)-sec-butyl 2-((2-(p-tolyl)prop-1-en-1-yl)oxy)propanoate]
96.3% | 95.3% | 90.7% | 79.6% | 67.3% | 53.0% | 41.2% | 100% | – | – | CC/C=C\CCOC(=O)C(C)OC=Cc1ccccc1 (racemic) [Compound 39, (±)-(Z)-hex-3-en-1-yl 2-(styryloxy)propanoate]
102% | 101% | 99.7% | 97.8% | 87.7% | 89.1% | 84.7% | 100% | – | – | COC(=O)C(C)(C)OC=C(C)c1ccc(OC)cc1 [Compound 27, methyl 2-((2-(4-methoxyphenyl)prop-1-en-1-yl)oxy)-2-methylpropanoate]
97.2% | 95.3% | 93.7% | 86.0% | 77% | 70.8% | 64.1% | 100% | – | – | COC(=O)C(C)(C)OC=Cc1ccccc1 [Compound 10, methyl 2-methyl-2-(styryloxy)propanoate]
99.7% | 99.2% | 98.1% | 94.1% | 91.7% | 88.4% | 84.4% | 100% | – | – | CCCCCC(CC)OC(=O)C(C)OC=Cc1ccccc1 (racemic) [Compound 41, (±)-octan-3-yl 2-(styryloxy)propanoate]
